Measured values from PubChem BioAssay (NCI).
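Cultured in 96-well plates, cells were exposed to test compound for 48 hours across five concentrations. Here, GI50 denotes the concentration required for 50% inhibition of growth. The concentration for full growth arrest is given as TGI.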

Assays:
Test in all cases: inhibition of tumour cell growth, NCI panel, 48 h
[1] = test system: UO-31 renal
[2] = test system: SF-539 CNS
[3] = test system: RPMI-8226 leukemia
[4] = test system: A549 NSCLC
[5] = test system: NCI-H23 lung
[6] = test system: HOP-92 NSCLC
[7] = test system: A498 renal
[8] = test system: SW-620 colon
[9] = test system: HT29 colon
[10] = test system: SK-MEL-2 melanoma

| Structure (SMILES) | TGI [1] | TGI [2] | TGI [3] | TGI [4] | TGI [5] | TGI [6] | TGI [7] | TGI [8] | TGI [9] | TGI [10] | GI50 [1] | GI50 [2] | GI50 [3] | GI50 [4] | GI50 [5] | GI50 [6] | GI50 [7] | GI50 [8] | GI50 [9] | GI50 [10] |
| --- | --- | --- | --- | --- | --- | --- | --- | --- | --- | --- | --- | --- | --- | --- | --- | --- | --- | --- | --- | --- |
| COCCOCCOC1=CC(=O)c2c(O)ccc(O)c2C1=O | 3.02 µM | 3.9 µM | 4.26 µM | 3.38 µM | 3.23 µM | 3.71 µM | 5.08 µM | 1.72 µM | 1.79 µM | 3.47 µM | – | – | – | – | – | – | – | – | – | – |
| O=C(O)[C@H](c1ccccc1)[C@@H](C(=O)O)c1ccccc1 | > 100 µM | > 100 µM | > 100 µM | > 100 µM | > 100 µM | > 100 µM | > 100 µM | > 100 µM | > 100 µM | > 100 µM | – | – | – | – | – | – | – | – | – | – |
| O=C(N/N=C/c1ccccc1O)c1ccccc1 | 11.7 µM | 66.8 µM | 8.52 µM | > 100 µM | > 100 µM | > 100 µM | > 100 µM | > 100 µM | > 100 µM | > 100 µM | 1.53 µM | 3.19 µM | 0.583 µM | 3.9 µM | 4.92 µM | 5.84 µM | 7.28 µM | 2.84 µM | 3.43 µM | > 100 µM |
| COc1cc(NCCCCCCCNC(C)C)c2nccc(C)c2c1 | 23 µM | 26.8 µM | 20.4 µM | 38.3 µM | 26.2 µM | 23.8 µM | 29.6 µM | 28.6 µM | 16.4 µM | 38.3 µM | 7.41 µM | 13.7 µM | 4.79 µM | 18.8 µM | 12.1 µM | 10.7 µM | 15.3 µM | 12.6 µM | 4.29 µM | 20 µM |
| O=c1cc(/C=C/c2ccccc2)[nH]c2cc3c(cc12)OCO3 | 20.9 µM | 4.69 µM | 3.18 µM | 21.4 µM | 13.3 µM | 14.8 µM | 9.87 µM | 19.2 µM | 5.58 µM | 9.11 µM | – | – | – | – | – | – | – | – | – | – |
| O=S(=O)(NCCCNc1nccc(-c2c(-c3ccc(F)cc3)nc3sccn23)n1)c1ccc2ccccc2c1 | > 100 µM | > 100 µM | > 100 µM | > 100 µM | > 100 µM | > 100 µM | > 100 µM | > 100 µM | 7.58 µM | > 100 µM | 3.58 µM | > 100 µM | 4.05 µM | 4.43 µM | 15.1 µM | 6.36 µM | 3.01 µM | 6.4 µM | 2.4 µM | 6.63 µM |
| C=C1C(=O)O[C@H]2[C@H]1CC/C(COC(=O)NCC(C)c1ccc(CC(C)C)cc1)=C\CC[C@@]1(C)O[C@@H]21 (stereo not given in full) | 0.909 µM | 7.71 µM | 1.9 µM | 11.8 µM | 8.69 µM | 1.5 µM | 8.68 µM | 1.79 µM | 2.52 µM | 8.48 µM | 0.474 µM | 3.71 µM | 0.681 µM | 6.46 µM | 3.69 µM | 0.545 µM | 4.36 µM | 0.751 µM | 1.03 µM | 3.86 µM |
